# Reference: article PMC10220883, “Relating Molecular Dynamics Simulations to Functional Activity for Gly-Rich Membranolytic Helical Kiadin Peptides” (Pharmaceutics, 2023)
# No end group written: not given here.
# Key:
# [1] = test system: Escherichia coli ATCC 25922; set-up: method as in PMID 29553266; details: cited from earlier work; for E. coli MIC: microdilution, Mueller–Hinton broth, 5 × 10^5 CFU/mL, overnight 37 °C, no visual growth; for E. coli MBC: no visible growth on MH agar after 18 h at 37 °C of aliquots from MIC, 2 × MIC, 4 × MIC wells
# [2] = test system: human red blood cells (RBC); details: cited from earlier work; for HC50 (haemolytic activity, text): 0.5% human erythrocytes in PBS
# [3] = test system: MEC-1 chronic lymphocytic leukaemia cell line; test: MTT cytotoxicity assay; type: cell-based, human; set-up: Cytotoxicity MEC-1 (qualitative score): key to the marks not given beside the values; details: for IC50 MEC-1 cells: tested range 5 to 50 µM
# Procedure: Cytotoxicity was also assessed on a human lymphocytic cell line by using the 3-(4,5-dimethylthiazol-2-yl)-2,5-diphenyl tetrazolium bromide (MTT) assay. The MEC-1 chronic lymphocytic leukaemia cell line was kindly provided by Prof. P. Macor (Department of Life Sciences, University of Trieste, IT). MEC-1 cells were cultured in RPMI 1640 complete medium supplemented with 2 mM L-glutamine, 100 U/mL penicillin, 100 µg/mL streptomycin and 10% foetal bovine serum (FBS) and were subcultured two/three times a week for not more than 20 passages. The colorimetric MTT assay was performed to assess the metabolic activity of cells plated onto 96-well culture plates (10^5 cells/well, V^f = 100 µL) that had been exposed to 5 to 50 µM kiadins for 24 h. Twenty microlitres of a stock MTT solution (5 mg/mL) were added to each well after 20 h and left to incubate for the remaining 4 h. The converted MTT dye was then solubilized with acidic isopropanol (0.04 N HCl in absolute isopropanol). Absorbance was measured at 540 and 630 nm using an automated microplate reader (EL311, BIO-TEK® Instruments, Charlotte, VT, USA). All measurements were carried out at least in triplicate. An IC50 value was estimated as the concentration of peptide causing a 50% decrease in viability, calculated using GraphPad Prism software.
# [4] = test system: Staphylococcus aureus ATCC 25923; set-up: method as in PMID 29553266; details: cited from earlier work; for S. aureus MIC: microdilution, Mueller–Hinton broth, 5 × 10^5 CFU/mL, overnight 37 °C, no visual growth; for S. aureus MBC: no visible growth on MH agar after 18 h at 37 °C of aliquots from MIC, 2 × MIC, 4 × MIC wells
# [5] = test system: human red blood cells (RBC); test: Haemolytic activity assay; type: cell-based; set-up: key to the marks not given beside the values
# Procedure: Haemolytic activity was previously reported by Roncevic et al. and was evaluated by incubating 0.5% erythrocytes provided by an informed healthy donor with serially diluted peptides in 96-well microtiter plates. Haemoglobin release was monitored at 450 nm. Triton-X was used as a positive control, and the incubation of red blood cells in PBS without peptides was the negative control. A HC50 value was calculated as the concentration causing 50% haemolysis.
# [6] = Surface plasmon resonance binding to immobilized liposomes; details: SPR, L1 chip with DOPC LUVs, PBS, 0.5 to 16 μM peptide, affinity-steady state model; estimated; repeated three times; read-out: KD (equilibrium dissociation constant)
# Procedure: Large unilamellar vesicles (LUVs) were prepared as described by Morgera et al.. Briefly, dry 1,2-dioleoyl-sn-glycero-3-phosphocholine (DOPC) or phosphatidylglycerol:diphosphatidylglycerol (DPPG) was dissolved in chloroform/methanol (2:1) solution, then evaporated using a dry nitrogen stream and vacuum-dried for 24 h. The liposome cake was resuspended in 1 mL of sodium phosphate buffer (SPB) to a concentration of 5 mM phospholipid and spun for 1 h at 40 °C. The vesicles were then subjected to several freeze–thaw cycles before passing through a mini-extruder (Avanti Polar Lipids, Alabaster, AL, USA) with successive polycarbonate filters having 1, 0.4 and 0.1 μm pores before resuspending to a final phospholipid concentration of 0.4 mM. By calculating the surface area of a ∼100 nm liposome and taking into account the average area of a phospholipid headgroup (∼0.7 nm^2) (similar to the value determined in MD simulations), the concentration of the liposomes was estimated to be about 5 nM.
# Peptide–membrane interactions were studied using an X-100 instrument (Biacore, GE Lifesciences). LUVs were prepared using DOPC as described above. The extruded unilamellar LUVs were then diluted to result in ~1 mM phospholipid in PBS. The L1 sensor chip was preconditioned and loaded with the LUVs, as described previously. […]
Substance,E. coli MIC [1],E. coli MBC [1],"HC50 (haemolytic activity, text) [2]","MEC-1 IC50 (concentration causing 50% decrease in viability) ([3]; MTT, 10^5 cells/well, 5 to 50 µM peptide, 24 h, RPMI 1640 with 10% FBS, at least triplicate)","IC50 MEC-1 cells ([3]; MTT, 24 h)",S. aureus MIC [4],S. aureus MBC [4],Cytotoxicity RBC (qualitative score) [5],Cytotoxicity MEC-1 (qualitative score) [3],"Haemolytic activity (in words) ([2]; 0.5% human erythrocytes, up to highest tested concentration)",Kd [6]
H-KIAKGALKALKIAKGALKAL-NH2 [kiadin-3],4 mM,16 mM,about 95 μM,>50 µM,> 50 µM,16 to 32 mM,32 mM,,,,
H-KIAKVALKALKIAKGALKAL-NH2 [kiadin-1],0.75 mM,0.75 mM,,,,0.5 to 1 mM,1.5 mM,+++,+++,,
H-KIALKALKALKALGKALKAL-NH2 [kiadin-6],1 to 2 mM,2 to 4 mM,,,,4 mM,4 mM,,,,
H-KIGKALGKALKALGKALGKA-NH2 [kiadin-4],8 mM,16 mM,,,,16 to 32 mM,32 mM,,,,
"KIAGKAGKIAKIAGKAGKIA-NH2 [kiadin-5, ab initio designed 20-residue amidated peptide with quadruple Gly substitution]",>64 mM,>64 mM,,,,>64 mM,>64 mM,,,not to be haemolytic up to the highest tested concentration,
KIAKGALKALKIAKVALKAL-NH2 [kiadin-2],0.25 to 0.5 mM,0.5 to 1 mM,,,,8 to 16 mM,8 to 16 mM,++,++,,
KIAKVALKALKIAKVALKAL-NH2 [diPGLa-H],1.5 mM,1.5 mM,about 22 μM,,9 ± 3 µM,0.75 mM,1.5 mM,,,,~5 µM
